Assay results taken from US10428080B2, “TBK/IKK inhibitor compounds and uses thereof” (Merck Patent GmbH, priority 2015, dated 2019).
Where a name gives a salt, the structure may show the parent alone.

Key:
TBK1 = target: T1, TBK1 (Homo sapiens, UniProt Q9UHD2); experiment: TBK Biochemical Assay; details: read-out: TBK1 IC50
T1 sequence (Q9UHD2 1-729): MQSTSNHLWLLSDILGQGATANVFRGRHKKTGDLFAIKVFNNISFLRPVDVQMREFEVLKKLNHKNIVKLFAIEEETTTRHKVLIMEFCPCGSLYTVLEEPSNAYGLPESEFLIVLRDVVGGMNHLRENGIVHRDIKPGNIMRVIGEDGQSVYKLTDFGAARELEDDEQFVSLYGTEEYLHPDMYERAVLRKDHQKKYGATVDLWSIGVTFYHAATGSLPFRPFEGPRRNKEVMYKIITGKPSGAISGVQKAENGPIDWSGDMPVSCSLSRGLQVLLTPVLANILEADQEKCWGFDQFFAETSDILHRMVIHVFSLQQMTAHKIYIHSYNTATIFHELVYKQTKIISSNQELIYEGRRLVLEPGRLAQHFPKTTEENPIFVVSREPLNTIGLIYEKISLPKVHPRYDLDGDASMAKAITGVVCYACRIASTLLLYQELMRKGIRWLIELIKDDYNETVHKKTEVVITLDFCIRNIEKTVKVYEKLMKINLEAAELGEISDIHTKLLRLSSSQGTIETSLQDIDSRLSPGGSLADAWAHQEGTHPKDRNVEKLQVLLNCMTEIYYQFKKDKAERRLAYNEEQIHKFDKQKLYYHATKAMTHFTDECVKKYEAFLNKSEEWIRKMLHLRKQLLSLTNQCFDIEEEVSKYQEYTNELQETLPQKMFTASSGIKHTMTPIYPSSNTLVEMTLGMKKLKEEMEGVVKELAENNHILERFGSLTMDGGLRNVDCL
Procedure, shortened: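 Caliper LabChip mobility-shift readout of substrate and product after 90 min of TBK1 reaction at 25° C and stop-buffer addition. Compounds tested in 1:4 serial dilution over 10 points from 30 uM final at 1% DMSO; staurosporine 10 uM final defines full inhibition.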

IKKε = target: T2, IKKε (Homo sapiens, UniProt Q14164); experiment: IKKe Biochemical Assay; details: read-out: IKKε IC50
T2 sequence (Q14164 1-716): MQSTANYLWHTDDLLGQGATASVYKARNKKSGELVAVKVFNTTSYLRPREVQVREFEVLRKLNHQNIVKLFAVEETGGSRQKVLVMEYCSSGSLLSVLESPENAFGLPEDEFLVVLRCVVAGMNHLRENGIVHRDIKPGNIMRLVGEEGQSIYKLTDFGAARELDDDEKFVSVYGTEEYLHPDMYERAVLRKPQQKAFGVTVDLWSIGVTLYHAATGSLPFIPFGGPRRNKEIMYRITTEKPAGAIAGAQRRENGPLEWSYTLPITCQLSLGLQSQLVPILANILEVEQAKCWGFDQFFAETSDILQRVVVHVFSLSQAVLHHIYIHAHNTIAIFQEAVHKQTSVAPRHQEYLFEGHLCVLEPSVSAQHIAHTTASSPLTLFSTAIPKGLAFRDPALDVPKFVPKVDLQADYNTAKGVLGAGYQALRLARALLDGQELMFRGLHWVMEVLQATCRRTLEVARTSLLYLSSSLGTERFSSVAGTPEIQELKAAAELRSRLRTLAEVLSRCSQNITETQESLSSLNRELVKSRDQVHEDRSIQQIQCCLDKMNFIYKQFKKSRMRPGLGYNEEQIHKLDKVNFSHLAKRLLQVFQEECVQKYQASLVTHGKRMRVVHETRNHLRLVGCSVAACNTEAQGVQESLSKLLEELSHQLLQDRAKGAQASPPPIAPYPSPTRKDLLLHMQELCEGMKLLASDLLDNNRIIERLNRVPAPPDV
Procedure, shortened: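 Activity was measured as mobility-shift separation of phosphorylated from unphosphorylated substrate on a LabChip EZ Reader. Compound was titrated from 30 uM final in 10 points, 1:4 steps, with 1% DMSO, and enzyme plus substrate reacted 90 min at 25° C before stop buffer. Control wells held 10 uM staurosporine.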

Row | Compound | IC50 (TBK1) [nM] | IC50 (IKKε) [nM]
1 | CN(C)C(=O)c1ccc(-c2cc3nccc(-c4ccc(OC5CC(C)(C)NC(C)(C)C5)c(C#N)c4)c3o2)cc1 [Compound 216, 4-(7-(3-cyano-4-(2,2,6,6-tetramethylpiperidin-4-yloxy)phenyl)furo[3,2-b]pyridin-2-yl)-N,N-dimethylbenzamide] | > 5000 | > 5000
2 | CN(C)C(=O)c1ccc(-c2cc3nccc(-c4ccc(Oc5ccccc5F)c(C#N)c4)c3o2)cc1 [Compound 178, 4-{7-[3-Cyano-4-(2-fluoro-phenoxy)-phenyl]-furo[3,2-b]pyridin-2-yl}-N,N-dimethyl-benzamide] | 100 to 1000 | 100 to 1000
3 | CN(C)C(=O)c1ccc(-c2cc3nccc(-c4cc(F)c(N(C)C5CCOCC5)c(C#N)c4)c3o2)cc1 [Compound 225, 4-(7-(3-cyano-5-fluoro-4-(methyl(tetrahydro-2H-pyran-4-yl)amino)phenyl)furo[3,2-b]pyridin-2-yl)-N,N-dimethylbenzamide hydrochloride] | 100 to 1000 | 100 to 1000
4 | CN(C)C(=O)c1ccc(-c2cc3nccc(-c4ccc(C5(N6CCOCC6)CC5)c(C#N)c4)c3o2)cc1 [Compound 287, 4-(7-[3-cyano-4-[1-(morpholin-4-yl)cyclopropyl]phenyl]furo[3,2-b]pyridin-2-yl)-N,N-dimethylbenzamide hydrochloride] | > 5000 | > 5000
5 | CN(C)C(=O)c1ccc(-c2cc3nccc(-c4ccc(CN5CCOCC5)c(C#N)c4)c3o2)cc1 [Compound 222, 4-(7-(3-cyano-4-(morpholinomethyl)phenyl)furo[3,2-b]pyridin-2-yl)-N,N-dimethylbenzamide] | 100 to 1000 | 100 to 1000
6 | COc1cc(C(=O)N(C)C)cnc1-c1cc2ncc(F)c(-c3ccc(OC4CCOCC4)c(C#N)n3)c2o1 [Compound 351, 6-[7-[6-cyano-5-(oxan-4-yloxy)pyridin-2-yl]-6-fluorofuro[3,2-b]pyridin-2-yl]-5-methoxy-N,N-dimethylpyridine-3-carboxamide hydrochloride] | 100 to 1000 | 100 to 1000
7 | CN(C)C(=O)c1ccc(-c2cc3nccc(-c4ccc(Oc5cccc(F)c5)c(C#N)c4)c3o2)cc1 [Compound 176, 4-{7-[3-Cyano-4-(3-fluoro-phenoxy)-phenyl]-furo[3,2-b]pyridin-2-yl}-N,N-dimethyl-benzamide] | 100 to 1000 | 100 to 1000
8 | N#Cc1cc(-c2ccnc3cc(-c4ccc(C(=O)O)cc4)oc23)ccc1Oc1cccnc1 [Compound 186, 4-{7-[3-Cyano-4-(pyridin-3-yloxy)-phenyl]-furo[3,2-b]pyridin-2-yl}-benzoic acid] | 1000 to 5000 | 100 to 1000
9 | COc1cc(C(=O)N(C)C2CCNCC2)ccc1-c1cc2nccc(-c3ccc(OC4CCOCC4)c(C#N)c3)c2o1 [Compound 41, 4-(7-[3-Cyano-4-(tetrahydro-pyran-4-yloxy)-phenyl]-furo[3,2-b]pyridin-2-yl)-3-methoxy-N-methyl-N-piperidin-4-yl-benzamide hydrochloride] | < 100 | < 100
10 | CN(C)C(=O)c1ccc(-c2cc3nccc(-c4ccc(OC5CCNCC5)c(C#N)c4)c3o2)cc1 [Compound 185, 4-{7-[3-Cyano-4-(piperidin-4-yloxy)-phenyl]-furo[3,2-b]pyridin-2-yl}-N,N-dimethyl-benzamide hydrochloride] | 1000 to 5000 | 100 to 1000
11 | COc1cc(C(=O)N(C)C)ccc1-c1cc2nccc(-c3ccc(OC4[C@H](C)COC[C@H]4C)c(C#N)c3)c2o1 (single isomer, unassigned) [Compound 231, 4-(7-(3-cyano-4-(3,5-dimethyl-tetrahydro-2H-pyran-4-yloxy)phenyl)furo[3,2-b]pyridin-2-yl)-3-methoxy-N,N-dimethylbenzamide] | < 100 | < 100

Other lines, results leading:

Row | IC50 (TBK1) [nM] | IC50 (IKKε) [nM] | Compound
12 | < 100 | < 100 | COc1cc(C(=O)N2CCCC(O)C2)ccc1-c1cc2nccc(-c3ccc(OC4CCOCC4)c(C#N)c3)c2o1 (stereo not drawn) [Compound 22, 5-{2-[4-(3-Hydroxy-piperidine-1-carbonyl)-2-methoxy-phenyl]-furo[3,2-b]pyridin-7-yl}-2-(tetrahydro-pyran-4-yloxy)-benzonitrile]
13 | < 100 | < 100 | COc1cc(C(=O)N[C@@H]2CCNC[C@@H]2F)ccc1-c1cc2nccc(-c3cc(F)c(NC4CCOCC4)c(C#N)c3)c2o1 (single isomer, unassigned) [Compound 253, 4-(7-(3-cyano-5-fluoro-4-(tetrahydro-2H-pyran-4-ylamino)phenyl)furo[3,2-b]pyridin-2-yl)-N-(3-fluoropiperidin-4-yl)-3-methoxybenzamide hydrochloride]
14 | < 100 | < 100 | COc1cc(C(=O)N[C@@H]2CCNC[C@@H]2F)ccc1-c1cc2nccc(-c3ccc(NC4CCOCC4)c(C#N)c3)c2o1 (single isomer, unassigned) [Compound 251, 4-(7-(3-cyano-4-(tetrahydro-2H-pyran-4-ylamino)phenyl)furo[3,2-b]pyridin-2-yl)-N-(3-fluoropiperidin-4-yl)-3-methoxybenzamide hydrochloride]
15 | < 100 | < 100 | COc1cc(C(=O)N2CC[C@@H](O)C2)ccc1-c1cc2nccc(-c3ccc(NC4CCOCC4)c(C#N)c3)c2o1 [Compound 95, 5-{2-[4-((R)-3-Hydroxy-pyrrolidine-1-carbonyl)-2-methoxy-phenyl]-furo[3,2-b]pyridin-7-yl}-2-(tetrahydro-pyran-4-ylamino)-benzonitrile]
16 | < 100 | < 100 | COc1cc(C(=O)N(C)C)ccc1-c1cc2nccc(-c3cc(F)c(NC4CCOCC4)c(C#N)c3)c2o1 [Compound 236, 4-(7-(3-cyano-5-fluoro-4-(tetrahydro-2H-pyran-4-ylamino)phenyl)furo[3,2-b]pyridin-2-yl)-3-methoxy-N,N-dimethylbenzamide]
17 | < 100 | < 100 | COc1cc(C(=O)N(C)CCCO)ccc1-c1cc2nccc(-c3ccc(NC4CCOCC4)c(C#N)c3)c2o1 [Compound 261, 4-(7-(3-cyano-4-(tetrahydro-2H-pyran-4-ylamino)phenyl)furo[3,2-b]pyridin-2-yl)-N-(3-hydroxypropyl)-3-methoxy-N-methylbenzamide]
18 | < 100 | < 100 | CN(C)C(=O)c1ccc(-c2cc3nccc(-c4ccc(OC5CCOCC5)c(C#N)c4)c3o2)c(OC(F)(F)F)c1 [Compound 241, 4-(7-(3-cyano-4-(tetrahydro-2H-pyran-4-yloxy)phenyl)furo[3,2-b]pyridin-2-yl)-N,N-dimethyl-3-(trifluoromethoxy)benzamide]
19 | < 100 | < 100 | COc1cc(C(=O)N2CCC(C)(O)C2)ccc1-c1cc2nccc(-c3ccc(OC4CCOCC4)c(C#N)c3)c2o1 (stereo not drawn) [Compound 19, 5-{2-[4-(3-Hydroxy-3-methyl-pyrrolidine-1-carbonyl)-2-methoxy-phenyl]-furo[3,2-b]pyridin-7-yl}-2-(tetrahydro-pyran-4-yloxy)-benzonitrile]
20 | < 100 | < 100 | COc1cc(C(=O)N(C)C2CCN(C)C2)ccc1-c1cc2nccc(-c3ccc(OC4CCOCC4)c(C#N)c3)c2o1 (stereo not drawn) [Compound 61, 4-{7-[3-Cyano-4-(tetrahydro-pyran-4-yloxy)-phenyl]-furo[3,2-b]pyridin-2-yl}-3-methoxy-N-methyl-N-(1-methyl-pyrrolidin-3-yl)-benzamide]
21 | < 100 | < 100 | N#Cc1cc(-c2ccnc3cc(-c4ccc(N)cc4)oc23)ccc1OC1CCOCC1 [Compound 126]
